Reference: BindingDB's records for PubMed 11082457 (Centre De Recherches De Croissy, 2000)
pKi: −log10 of the molar value. “And” between values parts separate entries of the source, which are not always exact repeats. Equal values may be shown once.

Experiments:
[1] = target: T1, Alpha-2C adrenergic receptor (Homo sapiens, UniProt P18825)
T1 sequence (P18825 whole entry): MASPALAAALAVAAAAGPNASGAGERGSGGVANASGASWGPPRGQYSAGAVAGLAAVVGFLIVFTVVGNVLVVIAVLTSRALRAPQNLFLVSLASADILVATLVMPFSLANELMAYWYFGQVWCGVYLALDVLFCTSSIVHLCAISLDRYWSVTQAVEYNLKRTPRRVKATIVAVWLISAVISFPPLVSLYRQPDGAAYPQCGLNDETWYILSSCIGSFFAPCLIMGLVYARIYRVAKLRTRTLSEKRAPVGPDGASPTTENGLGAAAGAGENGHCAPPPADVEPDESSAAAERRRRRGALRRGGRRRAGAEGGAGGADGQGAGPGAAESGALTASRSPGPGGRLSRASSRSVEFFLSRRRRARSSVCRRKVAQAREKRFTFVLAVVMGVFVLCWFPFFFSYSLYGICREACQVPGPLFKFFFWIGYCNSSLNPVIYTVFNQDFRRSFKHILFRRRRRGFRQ

[2] = target: Beta-2 adrenergic receptor (Homo sapiens, UniProt P07550)
Beta-2 adrenergic receptor, sequence (P07550 whole entry): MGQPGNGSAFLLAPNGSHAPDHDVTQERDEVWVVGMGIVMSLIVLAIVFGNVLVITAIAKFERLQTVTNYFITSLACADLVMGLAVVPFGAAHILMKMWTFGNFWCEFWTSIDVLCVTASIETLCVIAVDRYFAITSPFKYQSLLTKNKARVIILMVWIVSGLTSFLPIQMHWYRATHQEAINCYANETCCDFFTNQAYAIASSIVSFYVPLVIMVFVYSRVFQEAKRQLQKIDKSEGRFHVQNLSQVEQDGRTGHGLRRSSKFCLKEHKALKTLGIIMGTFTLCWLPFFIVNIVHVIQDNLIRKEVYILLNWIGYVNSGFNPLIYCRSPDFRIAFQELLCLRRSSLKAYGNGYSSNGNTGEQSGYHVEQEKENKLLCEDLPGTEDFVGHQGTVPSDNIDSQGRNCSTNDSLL

[3] = target: T2, Alpha-2A adrenergic receptor (Homo sapiens, UniProt P08913)
T2 sequence (P08913 whole entry): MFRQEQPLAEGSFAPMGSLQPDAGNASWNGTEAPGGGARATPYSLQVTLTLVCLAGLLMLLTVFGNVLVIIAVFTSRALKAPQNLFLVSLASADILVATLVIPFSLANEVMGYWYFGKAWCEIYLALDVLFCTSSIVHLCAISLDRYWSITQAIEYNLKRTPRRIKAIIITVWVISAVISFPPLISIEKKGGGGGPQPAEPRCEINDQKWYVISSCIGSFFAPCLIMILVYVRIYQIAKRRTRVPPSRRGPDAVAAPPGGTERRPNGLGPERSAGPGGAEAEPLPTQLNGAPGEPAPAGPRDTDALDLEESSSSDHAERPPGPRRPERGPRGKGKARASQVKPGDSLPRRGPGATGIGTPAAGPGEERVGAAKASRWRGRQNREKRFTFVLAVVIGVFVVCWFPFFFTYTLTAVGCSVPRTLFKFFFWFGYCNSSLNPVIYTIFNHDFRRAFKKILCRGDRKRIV

[4] = target: T3, Alpha-2A adrenergic receptor [16-465] (Rattus norvegicus, UniProt P22909)
T3 construct: 16-465
T3 sequence (P22909 whole entry): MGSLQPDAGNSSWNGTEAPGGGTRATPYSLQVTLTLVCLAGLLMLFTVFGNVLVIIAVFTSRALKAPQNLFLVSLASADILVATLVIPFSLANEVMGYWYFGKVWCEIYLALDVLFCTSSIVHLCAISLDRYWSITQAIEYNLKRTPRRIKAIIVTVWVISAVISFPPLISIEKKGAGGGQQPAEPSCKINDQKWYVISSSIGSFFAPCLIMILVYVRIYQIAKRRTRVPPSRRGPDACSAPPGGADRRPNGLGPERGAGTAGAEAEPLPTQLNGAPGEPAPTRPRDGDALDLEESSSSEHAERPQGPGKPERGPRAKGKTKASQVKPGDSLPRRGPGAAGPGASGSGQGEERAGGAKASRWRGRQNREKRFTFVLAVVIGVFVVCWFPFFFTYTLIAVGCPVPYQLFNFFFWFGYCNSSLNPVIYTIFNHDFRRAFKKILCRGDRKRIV

[5] = target: Beta-1 adrenergic receptor (Homo sapiens, UniProt P08588)
Beta-1 adrenergic receptor, sequence (P08588 whole entry): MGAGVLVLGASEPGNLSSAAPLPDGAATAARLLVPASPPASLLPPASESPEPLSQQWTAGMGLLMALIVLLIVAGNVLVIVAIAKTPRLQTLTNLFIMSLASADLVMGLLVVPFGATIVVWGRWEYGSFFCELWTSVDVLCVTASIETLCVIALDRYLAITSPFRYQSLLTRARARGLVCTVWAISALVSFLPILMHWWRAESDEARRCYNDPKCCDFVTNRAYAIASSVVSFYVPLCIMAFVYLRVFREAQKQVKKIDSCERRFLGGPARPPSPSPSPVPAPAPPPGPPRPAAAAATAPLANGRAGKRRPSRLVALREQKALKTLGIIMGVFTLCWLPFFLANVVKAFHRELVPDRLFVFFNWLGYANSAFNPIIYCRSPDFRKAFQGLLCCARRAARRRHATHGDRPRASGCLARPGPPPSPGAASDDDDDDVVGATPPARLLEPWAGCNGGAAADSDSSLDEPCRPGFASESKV

SMILES	pKi [1]	pKi [2]	pKi [3]	pKi [4]	pKi [5]
Cc1cccc([C@@H](C)c2cnc[nH]2)c1C	7.82 and 8.60				
NC1=NC2(CCc3ccccc3C2)CO1 (stereo not given) [S18616]		6.00	9.25 and 9.20 and 9.50	9.60	6.00
